Where two headings read alike, the source gives them in different places.
What was measured:
Assay in all cases: Synergistic Growth Inhibition Assay (MIC and FIC index, 96-well, resazurin)
Assay type in all cases: cell-based
[1] = tested on: Sclerotinia sclerotiorum; settings: Sclerotinia sclerotiorum, […]
Procedure: (§1) In some embodiments, the synergistic action between the pesticidal active ingredient, and the at least one C6-C10 (or alternatively C11 or C12) saturated or unsaturated aliphatic acid components of the pesticidal compositions according to embodiments of the present disclosure was tested using a Synergistic Growth Inhibition Assay, which is derived from and related to a checkerboard assay as is known in the art for testing of combinations of antimicrobial agents. In the Synergistic Growth Inhibition Assay used in accordance with some embodiments of the present disclosure, multiple dilutions of combinations of pesticidal active ingredient and at least one C6-C10 saturated or unsaturated aliphatic acid agents are tested in individual cells for inhibitory activity against a target pest or pathogenic organism. In one such embodiment, the combinations of pesticidal active ingredient and C6-C10 (or alternatively C11 or C12) saturated or unsaturated aliphatic acid agents may preferably be tested in decreasing concentrations. In a further such embodiment, the combinations of pesticidal active ingredient and C6-C10 (or alternatively C11 or C12) saturated or unsaturated aliphatic acid agents may be tested in increasing concentrations. These multiple combinations of the pesticidal active ingredient and at least one C6-C10 (or alternatively C11 or C12) saturated or unsaturated aliphatic acid agents may be prepared in 96-well microtiter plates. In one such embodiment, the Synergistic Growth Inhibition Assay then comprises rows which each contain progressively decreasing concentrations of the pesticidal active ingredient and one or more C6-C10 (or alternatively C11 or C12) saturated or unsaturated aliphatic acid agents to test for the MIC of the agents in combination at which growth of the target pest or pathogen is inhibited. Thus, each well of the microtiter plate is a unique combination of the two agents, at which inhibitory efficacy of the combination against the target pest or pathogen can be determined.
(§2) In one embodiment according to the present disclosure, for each row of microtiter cells in the Synergistic Growth Inhibition Assay, the FIC index is calculated from the lowest concentration of the pesticidal active ingredient and one or more C6-C10 saturated or unsaturated aliphatic acid agents necessary to inhibit growth of a target pest or pathogen. The FIC of each component is derived by dividing the concentration of the agent present in that well of the microtiter plate by the minimal inhibitory concentration (MIC) needed of that agent alone to inhibit growth of the target pest or pathogen. The FIC index is then the sum of these values for both agents in that well of the microtiter plate. […] Fractional inhibitory concentration indices may then used as measure of synergy. […] When the FIC index is equal to 1, the combination is additive.
(§3) Then, serial dilutions of these initial compositions in successive wells in the row of the microtiter plate were used to assay the pesticidal composition under the same conditions to determine the concentration of the composition combining the two agents corresponding to the microtiter well in which growth inhibition of the target pest or organism ceases.
(§4) Similarly to as described above, Resazurin was used as an indicator of growth or inhibition of growth of Sclerotinia sclerotiorum in the exemplary Synergistic Growth Inhibition Assay. In addition to the color change of the resazurin, an optical or visual examination of the microtiter well may also be made to additionally determine the presence of growth or inhibition of growth of the Sclerotinia sclerotiorum.

[2] = tested on: Alternaria solani; settings: for MIC: Alternaria solani
Procedure: as §1, §2, §3
A culture of the representative fungal pathogen, namely Fusarium oxysporum, Botrytis cinerea, or Sclerotinia sclerotiorum, for example, is grown to exponential phase in potato dextrose broth (PDB).

[3] = tested on: Botrytis cinerea; settings: 48 hours incubation; for MIC: Botrytis cinerea, 48 h
Procedure: as §1, §2, §3
as §4, with “Botrytis cinerea” for “Sclerotinia sclerotiorum”, “Botrytis cinerea.” for “Sclerotinia sclerotiorum.”

[4] = tested on: Fusarium oxysporum; settings: Fusarium oxysporum, Compound B alone
Procedure: as §1, §2, §3
Resazurin dye (also known as Alamar blue dye) was used as an indicator to determine the presence of growth or inhibition of growth of Fusarium oxysporum in the wells of the 96 well microtiter plates used in the exemplary Synergistic Growth Inhibition Assay. In addition to the color change of the resazurin dye in the presence of growth of the Fusarium oxysporum, an optical or visual examination of the microtiter well may also be made to additionally determine the presence of growth or inhibition of growth of the Fusarium oxysporum.

[5] = Compound B alone, 7 days incubation, read-out: MIC (B)
[6] = Table 51, Compound B alone, read-out: MIC (B)
[7] = Table 59, Compound B alone, read-out: MIC (B)
[8] = Table 56, Compound B alone, read-out: MIC (B)
[9] = Table 33, Compound B alone, 7 days incubation, read-out: MIC (B)
[10] = Table 35, Compound B alone, 7 days incubation, read-out: MIC (B)
[11] = Table 41, Compound B alone, 7 days incubation, read-out: MIC (B)
[12] = Table 60, Compound B alone, 7 days incubation, read-out: MIC (B)
[13] = 24 h, Table 3, 24 hour incubation, read-out: MIC(B)
[14] = 24 h, Table 4, 24 hour incubation, read-out: MIC (B)
[15] = 48 h, Table 27, 48 hours incubation, read-out: MIC (B)
[16] = 48 h, Table 28, 48 hours incubation, read-out: MIC (B)
[17] = 48 h, Table 29, 48 hours incubation, read-out: MIC (B)
[18] = 48 h, Table 31, 48 hours incubation, read-out: MIC (B)
[19] = Table 43, Compound B alone, read-out: MIC (B)
[20] = Table 44, Compound B alone, read-out: MIC (B)
[21] = Table 47, Compound B alone, read-out: MIC (B)
[22] = Table 49, Compound B alone, read-out: MIC (B)
[23] = 48 h, Table 30, 48 hours incubation, read-out: MIC (B)
[24] = Table 16, Compound B alone, incubation 7 days, read-out: MIC (B)
[25] = Table 20B, Compound B alone, incubation 7 days, read-out: MIC (B)
[26] = 48 h, Table 15B, incubation 48 hours, read-out: MIC (B)
[27] = 48 h, Table 32, 48 hours incubation, read-out: MIC (B)
[28] = Compound A alone, 7 days incubation, read-out: MIC (A)

## CCCCC(CC)C(=O)O (stereo not drawn) [2-Ethylhexanoic acid]
[1]; [5]
  MIC: 156 µg/mL
[2]; [5]
  MIC: 156 µg/mL
[3]; [6]
  MIC: 156 µg/mL
[3]; [7]
  MIC: 156 µg/mL

## CCC(O)C(=O)O (stereo not drawn) [2-Hydroxybutyric acid]
[1]; [5]
  MIC: 5000 µg/mL
[2]; [5]
  MIC: 2500 µg/mL
[2]; Compound B alone, 7 days incubation
  MIC (B): 2500 µg/mL
[3]; [6]
  MIC: 5000 µg/mL
[3]; [8]
  MIC: 2500 µg/mL
[3]; Table 57, Compound B alone, read-out: MIC (B)
  MIC: 2500 µg/mL
[3]; [7]
  MIC: 2500 µg/mL

## CCCCCCC(O)C(=O)O (stereo not drawn) [2-Hydroxyoctanoic acid]
[1]; [5]
  MIC: 625 µg/mL
[2]; [5]
  MIC: 625 µg/mL
[3]; [6]
  MIC: 625 µg/mL

## CCCCCCC=CCC(=O)O [3-Decenoic acid, 3-decenoic acid]
[1]; [5]
  MIC: 156 µg/mL
[1]; [9]
  MIC: 39.1 µg/mL
[1]; [10]
  MIC: 39.1 µg/mL
[1]; Table 38, Compound B alone, 7 days incubation, read-out: MIC (B)
  MIC: 39.1 µg/mL
[1]; Table 40, Compound B alone, 7 days incubation, read-out: MIC (B)
  MIC: 78.1 µg/mL
[1]; [11]
  MIC: 78.1 µg/mL
[2]; [12]
  MIC: 78.1 µg/mL
[4]; [13]
  MIC: 73.4 µg/mL
[4]; [14]
  MIC: 73.4 µg/mL
[4]; [15]
  MIC: 312 µg/mL
[4]; [16]
  MIC: 78.1 µg/mL
[4]; [17]
  MIC: 156 µg/mL
[4]; [18]
  MIC: 78.1 µg/mL
[3]; [19]
  MIC: 78.1 µg/mL
[3]; [20]
  MIC: 78.1 µg/mL
[3]; Table 45, Compound B alone, read-out: MIC (B)
  MIC: 78.1 µg/mL
[3]; [21]
  MIC: 78.1 µg/mL
[3]; [22]
  MIC: 78.1 µg/mL
[3]; Table 50, Compound B alone, read-out: MIC (B)
  MIC: 78.1 µg/mL
[3]; Table 53, Compound B alone, read-out: MIC (B)
  MIC: 39.1 µg/mL
[3]; Table 54, Compound B alone, read-out: MIC (B)
  MIC: 39.1 µg/mL
[3]; [8]
  MIC: 78.1 µg/mL
[3]; Table 58, Compound B alone, read-out: MIC (B)
  MIC: 156 µg/mL

## CCCC=CCC(=O)O [3-Heptenoic acid]
[1]; [5]
  MIC: 156 µg/mL
[1]; [9]
  MIC: 78.1 µg/mL
[1]; [10]
  MIC: 78.1 µg/mL
[1]; Table 39, Compound B alone, 7 days incubation, read-out: MIC (B)
  MIC: 78.1 µg/mL
[1]; [11]
  MIC: 78.1 µg/mL
[2]; [12]
  MIC: 312 µg/mL
[4]; [15]
  MIC: 156 µg/mL
[4]; [16]
  MIC: 156 µg/mL
[4]; [17]
  MIC: 156 µg/mL
[4]; [23]
  MIC: 156 µg/mL
[4]; [18]
  MIC: 156 µg/mL
[3]; [19]
  MIC: 78.1 µg/mL
[3]; [20]
  MIC: 78.1 µg/mL
[3]; [21]
  MIC: 78.1 µg/mL
[3]; [22]
  MIC: 78.1 µg/mL

## CC(O)CC(=O)O (stereo not drawn) [3-Hydroxybutyric acid, 3-hydroxybutyric acid]
[1]; [24]
  MIC: 10000 µg/mL
[1]; [25]
  MIC: 5000 µg/mL
[2]; [5]
  MIC: 5000 µg/mL
[4]; 48 h, Table 10, incubation 48 hours, read-out: MIC (B)
  MIC: 10000 µg/mL
[4]; [26]
  MIC: 10000 µg/mL
[3]; [6]
  MIC: 10000 µg/mL
[3]; [8]
  MIC: 10000 µg/mL
[3]; [7]
  MIC: 5000 µg/mL

## CCCC(O)CC(=O)O (stereo not drawn) [3-Hydroxyhexanoic acid, 3-hydroxyhexanoic acid]
[1]; [24]
  MIC: 5000 µg/mL
[1]; [25]
  MIC: 2500 µg/mL
[2]; [5]
  MIC: 2500 µg/mL
[4]; [26]
  MIC: 2500 µg/mL
[3]; [6]
  MIC: 2500 µg/mL
[3]; [8]
  MIC: 5000 µg/mL
[3]; [7]
  MIC: 2500 µg/mL

## CC(C)CC(=O)O [3-Methylbutyric acid]
[1]; [5]
  MIC: 625 µg/mL
[2]; [5]
  MIC: 312 µg/mL
[3]; [6]
  MIC: 312 µg/mL
[3]; [7]
  MIC: 312 µg/mL

## CCCCC=CCC(=O)O [3-Octenoic acid, 3-octenoic acid]
[2]; [12]
  MIC: 156 µg/mL
[4]; [13]
  MIC: 147 µg/mL
[4]; [14]
  MIC: 147 µg/mL
[4]; [23]
  MIC: 156 µg/mL
[4]; [18]
  MIC: 156 µg/mL
[4]; [27]
  MIC: 156 µg/mL

## C=CCCCCCC(=O)O [7-Octenoic acid]
[2]; [5]
  MIC: 156 µg/mL
[4]; [15]
  MIC: 312 µg/mL
[4]; [23]
  MIC: 312 µg/mL
[4]; [27]
  MIC: 156 µg/mL

## O=C(O)CCCCCCCCCO [10-Hydroxydecanoic acid]
[1]; read-out: MIC (B), Compound B alone, 7 days incubation
  MIC: 500 µg/mL
[2]; read-out: MIC (B)
  MIC: 1000 µg/mL
[3]; read-out: MIC (B), Table 51, Compound B alone
  MIC: 250 µg/mL
[3]; read-out: MIC (B), Table 59, Compound B alone
  MIC: 250 µg/mL

## CC/C=C\CC(=O)O [Cis-3-hexenoic acid]
[1]; Table 34, Compound B alone, 7 days incubation, read-out: MIC (B)
  MIC: 156 µg/mL
[2]; [5]
  MIC: 312 µg/mL

## CCCCCCC(=O)O [Heptanoic acid, heptanoic acid]
[1]; [24]
  MIC: 39.1 µg/mL
[1]; Table 17, Compound B alone, incubation 7 days, read-out: MIC (B)
  MIC: 39.1 µg/mL
[1]; Table 19, Compound B alone, incubation 7 days, read-out: MIC (B)
  MIC: 39.1 µg/mL
[2]; [5]
  MIC: 156 µg/mL
[2]; [12]
  MIC: 156 µg/mL
[3]; Table 24, Compound B alone, read-out: MIC (B)
  MIC: 156 µg/mL

## CC(C)CC(C)c1sccc1NC(=O)c1cn(C)nc1C(F)(F)F (stereo not drawn) [Penthiopyrad, reference compound]
[1]; [28]
  MIC: 500 µg/mL
[2]; [28]
  MIC: 500 µg/mL
[3]; Table 56, Compound A alone, read-out: MIC (A)
  MIC: 250 µg/mL

## CO/C=C(/C(=O)OC)c1ccccc1COc1cccc(C(F)(F)F)n1 [Picoxystrobin, reference compound]
[2]; Compound A alone, 7 days incubation
  MIC (A): 500 µg/mL
[2]; Table 60, Compound A alone, 7 days incubation
  MIC (A): 500 µg/mL
[3]; Table 51, Compound A alone
  MIC (A): 250 µg/mL
[3]; Table 52, Compound A alone
  MIC (A): 250 µg/mL

## OC(Cc1ccccc1Cl)(Cn1nc[nH]c1=S)C1(Cl)CC1 (stereo not drawn) [Prothioconazole, reference compound]
[1]; [28]
  MIC: 62.5 µg/mL
[2]; [28]
  MIC: 500 µg/mL
[3]; Table 57, Compound A alone, read-out: MIC (A)
  MIC: 31.2 µg/mL

## CCCC/C=C/CC(=O)O [Trans-3-octenoic acid]
[2]; [5]
  MIC: 156 µg/mL
[2]; [12]
  MIC: 156 µg/mL
[4]; [15]
  MIC: 156 µg/mL
[4]; [23]
  MIC: 156 µg/mL
[4]; [27]
  MIC: 156 µg/mL
